Experimental data published in ChEMBL document CHEMBL1201862, “PubChem BioAssay data set” (2004).
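In this assay, cells in 96-well plates receive the compound at five concentrations for 48 hours. Endpoints are linearly interpolated between the surrounding concentrations. GI50 is the concentration that inhibits growth by half.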 The source made the active and inactive calls. Cut-off read from the data, not from the text of the source: active = GI50 up to about 1.1 µM and inactive = higher.

Key:
Assay in all cases: growth of human tumour cells (NCI), 48 h
786-0 = system: 786-0
A549 = system: A549
ACHN = system: ACHN
CAKI-1 = system: CAKI-1
COLO 205 = system: COLO 205
DLD-1 = system: DLD-1
DMS-114 = system: DMS-114
DMS-273 = system: DMS-273
EKVX = system: EKVX
HCT-116 = system: HCT-116
HCT-15 = system: HCT-15
HOP-92 = system: HOP-92
HT-29 = system: HT-29
IGROV-1 = system: IGROV-1
K562 = system: K562
KM-20L2 = system: KM-20L2
KM12 = system: KM12
LXFL 529 = system: LXFL 529
M14 = system: M14
M19-MEL = system: M19-MEL
MOLT-4 = system: MOLT-4
Malme-3M = system: Malme-3M
NCI-H226 = system: NCI-H226
NCI-H23 = system: NCI-H23
NCI-H460 = system: NCI-H460
NCI-H522 = system: NCI-H522
OVCAR-3 = system: OVCAR-3
OVCAR-4 = system: OVCAR-4
OVCAR-5 = system: OVCAR-5
OVCAR-8 = system: OVCAR-8
RPMI-8226 = system: RPMI-8226
RXF 393 = system: RXF 393
RXF 631 = system: RXF 631
SF-295 = system: SF-295
SF-539 = system: SF-539
SK-MEL-28 = system: SK-MEL-28
SK-MEL-2 = system: SK-MEL-2
SK-MEL-5 = system: SK-MEL-5
SK-OV-3 = system: SK-OV-3
SN12C = system: SN12C
SNB-19 = system: SNB-19
SNB-75 = system: SNB-75
SNB-78 = system: SNB-78
SR = system: SR
SW-620 = system: SW-620
TK-10 = system: TK-10
U-251 = system: U-251
UACC-257 = system: UACC-257
UACC-62 = system: UACC-62
UO-31 = system: UO-31
XF498 = system: XF498
A498 = system: A498
CCRF-CEM = system: CCRF-CEM
HCC 2998 = system: HCC 2998
HL-60 = system: HL-60
HOP-18 = system: HOP-18
HOP-62 = system: HOP-62
LOX IMVI = system: LOX IMVI
SF-268 = system: SF-268

CC(=O)OC1(Sc2ccccc2)CC2[C@H]3COC(C)(C)O[C@H]3CC[C@@]2(C)CC1=O (some centres not stated)
GI50 (786-0): 33.7 µM (inactive)
GI50 (A549): 43.2 µM (inactive)
GI50 (ACHN): 41.5 µM (inactive)
GI50 (CAKI-1): 48.8 µM (inactive)
GI50 (COLO 205): 26.9 µM (inactive)
GI50 (DLD-1): 65.2 µM (inactive)
GI50 (DMS-114): 27 µM (inactive)
GI50 (DMS-273): 39.6 µM (inactive)
GI50 (EKVX): 57.7 µM (inactive)
GI50 (HCT-116): 65.3 µM (inactive)
GI50 (HCT-15): 34.9 µM
GI50 (HOP-92): 45.2 µM (inactive)
GI50 (HT-29): 88.5 µM (inactive)
GI50 (IGROV-1): 21.3 µM (inactive)
GI50 (K562): 30.1 µM (inactive)
GI50 (KM-20L2): 37.5 µM (inactive)
GI50 (KM12): 43.5 µM (inactive)
GI50 (LXFL 529): 34.2 µM (inactive)
GI50 (M14): 34.6 µM (inactive)
GI50 (M19-MEL): 50.9 µM (inactive)
GI50 (MOLT-4): 9.95 µM (inactive)
GI50 (Malme-3M): 99.3 µM (inactive)
GI50 (NCI-H226): 20.2 µM (inactive)
GI50 (NCI-H23): 21.4 µM (inactive)
GI50 (NCI-H460): 64.1 µM (inactive)
GI50 (NCI-H522): 32.3 µM (inactive)
GI50 (OVCAR-3): 37.2 µM (inactive)
GI50 (OVCAR-4): 71.6 µM (inactive)
GI50 (OVCAR-5): > 100 µM (inactive)
GI50 (OVCAR-8): 74.8 µM (inactive)
GI50 (RPMI-8226): 21.1 µM (inactive)
GI50 (RXF 393): 47.2 µM (inactive)
GI50 (RXF 631): 14.4 µM (inactive)
GI50 (SF-295): 55.8 µM (inactive)
GI50 (SF-539): 26.1 µM (inactive)
GI50 (SK-MEL-28): > 100 µM (inactive)
GI50 (SK-MEL-2): 81.8 µM (inactive)
GI50 (SK-MEL-5): 21.3 µM (inactive)
GI50 (SK-OV-3): 44.2 µM (inactive)
GI50 (SN12C): 23.4 µM (inactive)
GI50 (SNB-19): 71.9 µM (inactive)
GI50 (SNB-75): 23.2 µM (inactive)
GI50 (SNB-78): > 100 µM (inactive)
GI50 (SR): 10 µM (inactive)
GI50 (SW-620): 52.4 µM (inactive)
GI50 (TK-10): > 100 µM (inactive)
GI50 (U-251): > 10 µM (inactive)
GI50 (UACC-257): 49.9 µM (inactive)
GI50 (UACC-62): 30.1 µM (inactive)
GI50 (UO-31): 19 µM (inactive)
GI50 (XF498): 19.2 µM (inactive)

CC(C)C1(O)C(c2ccccc2)=C(c2ccccc2)C(c2ccccc2)=C1c1ccccc1
GI50 (786-0): 5.78 µM (inactive)
GI50 (A498): 15.2 µM (inactive)
GI50 (A549): 6.76 µM (inactive)
GI50 (CAKI-1): 11.7 µM (inactive)
GI50 (CCRF-CEM): 5.09 µM (inactive)
GI50 (COLO 205): 10.1 µM (inactive)
GI50 (DLD-1): 5.87 µM (inactive)
GI50 (DMS-114): 3.4 µM (inactive)
GI50 (DMS-273): 4.46 µM (inactive)
GI50 (EKVX): 5.28 µM (inactive)
GI50 (HCC 2998): 8.69 µM (inactive)
GI50 (HCT-116): 3.61 µM (inactive)
GI50 (HCT-15): 5.22 µM
GI50 (HL-60): 2.65 µM (inactive)
GI50 (HOP-18): 10.9 µM (inactive)
GI50 (HOP-62): 12.1 µM (inactive)
GI50 (HOP-92): 4.38 µM (inactive)
GI50 (HT-29): 4.26 µM (inactive)
GI50 (IGROV-1): 6.15 µM (inactive)
GI50 (K562): 3.52 µM (inactive)
GI50 (KM-20L2): 8.32 µM (inactive)
GI50 (KM12): 4.9 µM (inactive)
GI50 (LOX IMVI): 6.59 µM (inactive)
GI50 (LXFL 529): 5.19 µM (inactive)
GI50 (M14): 6.95 µM (inactive)
GI50 (MOLT-4): 3.21 µM (inactive)
GI50 (Malme-3M): 10.4 µM (inactive)
GI50 (NCI-H226): 7.26 µM (inactive)
GI50 (NCI-H23): 9.59 µM (inactive)
GI50 (NCI-H460): 6.95 µM (inactive)
GI50 (NCI-H522): 4.35 µM (inactive)
GI50 (OVCAR-3): 4.71 µM (inactive)
GI50 (OVCAR-4): 5.73 µM (inactive)
GI50 (OVCAR-5): 17.5 µM (inactive)
GI50 (OVCAR-8): 10.3 µM (inactive)
GI50 (RPMI-8226): 2.28 µM (inactive)
GI50 (RXF 393): 2.82 µM (inactive)
GI50 (RXF 631): 3.58 µM (inactive)
GI50 (SF-268): 4.49 µM (inactive)
GI50 (SF-295): 12.6 µM (inactive)
GI50 (SF-539): 12.5 µM (inactive)
GI50 (SK-MEL-2): 5.33 µM (inactive)
GI50 (SK-MEL-5): 10.6 µM (inactive)
GI50 (SK-OV-3): 15.2 µM (inactive)
GI50 (SN12C): 5.31 µM (inactive)
GI50 (SNB-19): 21.8 µM (inactive)
GI50 (SNB-75): 12.3 µM (inactive)
GI50 (SNB-78): 11.6 µM (inactive)
GI50 (SR): 2.96 µM (inactive)
GI50 (SW-620): 6.12 µM (inactive)
GI50 (TK-10): 5.74 µM (inactive)
GI50 (U-251): 5.11 µM (inactive)
GI50 (UACC-257): 5.36 µM (inactive)
GI50 (UACC-62): 7.59 µM (inactive)
GI50 (UO-31): 2.46 µM (inactive)
GI50 (XF498): 2.96 µM (inactive)
